Reference: patent publication US10428013B2, “Amide compound, preparation method and uses thereof” (Shanghai Institute of Phamaceutical Industry, priority 2011, dated 2019)

Experiments:
[1] = test system: Cholelithiasis Model of Golden Hamster; test: Screening in the cholelithiasis model of golden hamster (biochemical measurement of bile); type: in vivo, golden hamsters; conditions: dosed 45 days, X ± SD
Description: Screening with the Compounds Prepared in Experiment 1 to 21 in the Cholelithiasis Model of Golden Hamster
68 male golden hamsters, 50-60 g, supplied by Shanghai Slaccas Laboratory Animal Company Limited.
The animals were fed for acclimation for 3 days, with 8 animals as blank control (Control) according to weight. The control was dosed with normal rat feedstuff, and the rest was dosed with feedstuff leading to cholelithiasis (sucrose 32.1%, cheese 64.2%, cholesterol 0.2%, salt 3%, vitamin B1 […], concentrated fish liver oil 0.4%). The animals were fed for acclimation for another 7 days, and divided into model group (Model), simvastatin group (Sim, 10 mg/kg), Ursodesoxycholic acid group (UDCA, 40 mg/kg), and compound group, n=6/group.
[…] 2:00-3:00 daily. The animals were weighed at Monday, and observed for hair color, stool, and variation of activation level.
The animals were dosed for continuous 45 days and then fasted for 12 hours; were anesthetized with 30 mg/kg sodium secobarbital via intraperitoneal injection; had 1 ml blood sampled via abdominal aorta; had gallbladder exposed, with an orifice on the gallbladder being clamped by the ophthalmological pliers and bile in the gallbladder being sucked with 1 ml syringe.
The Hitachi Automatic Biochemical Analyzer 7080 was used to measure cholesterol (CHO), total total bilirubin (TBIL), total bile acid (TBA) and total protein (TP) in bile.
Laboratory data was expressed as X±SD, and comparison of measurement data between groups was carried out by t-testing, with non-parametric testing for enumeration data.

[2] = test system: Hyperlipemia Model of SD Rat; test: Screening in the hyperlipemia model of SD rat (fat emulsion by gavage; serum lipids); type: in vivo; conditions: hyperlipemia SD rats, dosed 21 days, X ± SD
Description: Materials and Methods for Screening with the Compounds Prepared in Experiment 1 to 21 in the Hyperlipemia Model of SD Rat
SD rats, male, 150-180 g, supplied by Shanghai Slaccas Laboratory Animal Company Limited.
Preparation of fat emulsion: 500 g lard oil was weighed and placed into a vessel, heated for melting, and upon heating up to the temperature of 100° C., 200 g cholesterol was added and fully dissolved, then 20 g propylthiouracil was added. After full stirring and dissolving, 500 ml Tween 80 was added to give an oil phase. Meanwhile, 600 ml distilled water and 400 ml 1,2-propylene glycol were heated to 60° C. in water bath, and then 40 g sodium deoxycholate was added with stirring, until full dissolution, to give an aqueous phase. The aqueous phase was added into the oil phase and fully and uniformly mixed, to prepare the fat emulsion.
Formulation of the solution for the compounds: an appropriate amount of compounds was triturated with appropriate amount of Tween 80 for homogeneous dispersion, and then sufficient CMC-Na solution was added and fully triturated, suspended to give the solution for the compounds.
The animals were fed for acclimation for 3 days, with 8 animals as blank control (Control) according to weight, and the rest was subject to intragastric administration of fat emulsion at 1 ml/100 g weight at A.M. 9:00-11:00 daily for continuous 2 weeks; the animals were fasted for 12 hours, and had 1 ml blood sampled at orbital cavity, which was measured with the Hitachi Automatic Biochemical Analyzer 7080 for serum cholesterol (CHO), triglyceride (TO), low-density lipoprotein (LDL-C) and high-density lipoprotein (HDL-C), with the animals having CHO of 4-7 mmol/L for experiment.
The animals dosed with fat emulsion for 2 weeks were divided into model group (Model), simvastatin group (Sim, 10 mg/kg) and compound group (40 mg/kg) according to weight, and continued to receive intragastric administration with fat emulsion; at the same time, the dosed group was administered with respective amount of drug, and the model group was administered with equal volume of solvent. Fat emulsion was dosed by gavage at A.M., and drug was dosed at P.M. The animals were weighed at Monday, and were observed. The animals were dosed for continuous 21 days, and fasted for 12 hours, with 1 ml blood sampling at orbital cavity. The liver was exposed and observed for pathologic condition; after slicing and weighing, it was fixed into the 4% formaldehyde solution for pathologic examination.
The Hitachi Automatic Biochemical Analyzer 7080 was used to measure serum cholesterol (CHO), triglyceride (TG), low-density lipoprotein (LDL-C) and high-density lipoprotein (HDL-C).
Laboratory data were expressed as X±SD (Standard Deviation), and comparison between groups was carried out by t-testing.

[3] = test system: Mice; test: Testing for acute toxicity in mice; type: in vivo; conditions: orally by gavage, 5 g/kg, observation 14 days
Description: Testing for Acute Toxicity in Mice
The compounds was dissolved into an appropriate amount of Tween-80, and suspended and dispersed uniformly into a given amount of CMC-Na solution, which was administered orally and by gavage at a dose of 5 g/kg, with no toxicity associated with administration being observed, and no death of animals occurred during observation of continuous 14 days. From the results, the sample Compound 01, Compound 02, Compound 03, Compound 04, Compound 05, Compound 06, Compound 07, Compound 08, Compound 09, Compound 10, Compound 11, Compound 12, Compound 13, Compound 14, Compound 15, Compound 16, Compound 17, Compound 18, Compound 19, Compound 20 and Compound 21 were safe.

SMILES: CCC(C)(Oc1ccc(C2(c3ccc(OC(C)(CC)C(=O)NCC(=O)c4ccc(O)cc4)cc3)CCCCC2)cc1)C(=O)O (stereo not shown) [Compound 11]
- Cholesterol (CHO) in bile ([1]; 80 mg/kg): 0.82 ± 0.58 mmol/L
- Total bile acid (TBA) in bile ([1]; 80 mg/kg): 17.46 ± 7.77 mmol/L
- Total protein (TP) in bile ([1]; 80 mg/kg): 28.66 ± 8.48 g/L
- Total total bilirubin (TBIL) in bile ([1]; 80 mg/kg): 48.9 ± 22.10 µmol/L
- CHO1 Concentration (serum cholesterol) ([2]; 40 mg/kg): 12.18 ± 3.12 mmol/L
- HDL-C Concentration (serum high-density lipoprotein) ([2]; 40 mg/kg): 1.79 ± 0.34 mmol/L
- LDL-C Concentration (serum low-density lipoprotein) ([2]; 40 mg/kg): 11.37 ± 3.66 mmol/L
- TG Concentration (serum triglyceride) ([2]; 40 mg/kg): 1.13 ± 0.14 mmol/L

SMILES: CCC(CCCOc1cc(C)ccc1C)C(=O)N(C)CC(=O)c1cc(C)cc(O)c1 (stereo not shown) [Compound 16]
- Cholesterol (CHO) in bile ([1]; 40 mg/kg): 0.97 ± 0.62 mmol/L
- Total bile acid (TBA) in bile ([1]; 40 mg/kg): 19.74 ± 12.14 mmol/L
- Total protein (TP) in bile ([1]; 40 mg/kg): 40.70 ± 26.17 g/L
- Total total bilirubin (TBIL) in bile ([1]; 40 mg/kg): 55.0 ± 29.38 µmol/L
- CHO1 Concentration (serum cholesterol) ([2]; 40 mg/kg): 9.48 ± 1.27 mmol/L
- HDL-C Concentration (serum high-density lipoprotein) ([2]; 40 mg/kg): 1.32 ± 0.39 mmol/L
- LDL-C Concentration (serum low-density lipoprotein) ([2]; 40 mg/kg): 7.13 ± 1.52 mmol/L
- TG Concentration (serum triglyceride) ([2]; 40 mg/kg): 0.78 ± 0.25 mmol/L

SMILES: CC(Oc1ccc(Cl)cc1)(C(=O)NCC(=O)c1ccc(O)cc1)C1CC1 (stereo not shown) [Compound 20]
- Cholesterol (CHO) in bile ([1]; 20 mg/kg): 0.92 ± 0.66 mmol/L
- Total bile acid (TBA) in bile ([1]; 20 mg/kg): 16.80 ± 9.62 mmol/L
- Total protein (TP) in bile ([1]; 20 mg/kg): 32.94 ± 19.18 g/L
- Total total bilirubin (TBIL) in bile ([1]; 20 mg/kg): 75.92 ± .072 µmol/L
- CHO1 Concentration (serum cholesterol) ([2]; 40 mg/kg): 19.88 ± 0.84 mmol/L
- HDL-C Concentration (serum high-density lipoprotein) ([2]; 40 mg/kg): 2.63 ± 0.57 mmol/L
- LDL-C Concentration (serum low-density lipoprotein) ([2]; 40 mg/kg): 18.48 ± 0.43 mmol/L
- TG Concentration (serum triglyceride) ([2]; 40 mg/kg): 1.72 ± 0.26 mmol/L

SMILES: Cc1ccc(C)c(OCCCC(C)(C)C(=O)NCC(=O)c2ccc(CO)cc2)c1 [Compound 21]
- Acute toxicity, overall result [3]: safe
- CHO1 Concentration (serum cholesterol) ([2]; 40 mg/kg): 14.42 ± 2.75 mmol/L
- HDL-C Concentration (serum high-density lipoprotein) ([2]; 40 mg/kg): 1.69 ± 0.26 mmol/L
- LDL-C Concentration (serum low-density lipoprotein) ([2]; 40 mg/kg): 12.15 ± 3.12 mmol/L
- TG Concentration (serum triglyceride) ([2]; 40 mg/kg): 2.00 ± 0.52 mmol/L

SMILES: CCC(C)(C)C(=O)O[C@H]1C[C@@H](C)C=C2C=C[C@H](C)[C@H](CC[C@@H]3C[C@@H](O)CC(=O)O3)[C@H]21 [Simvastatin, reference compound]
- Cholesterol (CHO) in bile ([1]; 10 mg/kg): 1.07 ± 0.63 mmol/L
- Total bile acid (TBA) in bile ([1]; 10 mg/kg): 7.68 ± 3.31 mmol/L
- Total protein (TP) in bile ([1]; 10 mg/kg): 35.52 ± 18.04 g/L
- Total total bilirubin (TBIL) in bile ([1]; 10 mg/kg): 79.2 ± 34.2 µmol/L
- CHO1 Concentration (serum cholesterol) ([2]; 10 mg/kg): 12.52 ± 1.34 mmol/L
- HDL-C Concentration (serum high-density lipoprotein) ([2]; 10 mg/kg): 1.52 ± 0.32 mmol/L
- LDL-C Concentration (serum low-density lipoprotein) ([2]; 10 mg/kg): 11.92 ± 1.44 mmol/L
- TG Concentration (serum triglyceride) ([2]; 10 mg/kg): 1.41 ± 0.16 mmol/L
